# Measured values reported in ChEMBL document CHEMBL1138817, “Synthesis and cytotoxic activity of 3-O-acyl/3-hydrazine /2-bromo/20,29-dibromo betulinic acid derivatives” (2004).
# How the values were obtained:
# Assay type in all cases: functional
# L132 = experiment: Cytotoxic activity against human L132 cell line was measured after 72 hr using MTT assay; conditions: L132, 72 h, read-out: ED50 (the source's name)
# BRISTOL8 = experiment: Cytotoxic activity against human BRISTOL8 cell line was measured after 72 hr using MTT assay; conditions: Homo sapiens, BRISTOL8, 72 h; read-out: ED50 (the source's name)
# A549 = experiment: Cytotoxic activity against human A549 cell line was measured after 72 hr using MTT assay; conditions: A549, 72 h, read-out: ED50 (the source's name)
# U-937 = experiment: Cytotoxic activity against human U937 cell line was measured after 72 hr using MTT assay; conditions: Homo sapiens, U-937, 72 h; read-out: ED50 (the source's name)
# DU-145 = experiment: Cytotoxic activity against human DU145 cell line was measured after 72 hr using MTT assay; conditions: Homo sapiens, DU-145, 72 h; read-out: ED50 (the source's name)
# Jurkat = experiment: Cytotoxic activity against human JurkatE6.1 cell line was measured after 72 h using MTT assay; conditions: Homo sapiens, Jurkat, 72 h; read-out: ED50 (the source's name)
# CCRF-CEM = experiment: Cytotoxic activity against human CEM.CM3 cell line was measured after 72 hr using MTT assay; conditions: Homo sapiens, CCRF-CEM, 72 h; read-out: ED50 (the source's name)
# MOLT-4 = experiment: Cytotoxic activity against human MOLT-4 cell line was measured after 72 hr using MTT assay; conditions: Homo sapiens, MOLT-4, 72 h; read-out: ED50 (the source's name)
# PA-1 = experiment: Cytotoxic activity against human PA-1 cell line was measured after 72 hr using MTT assay; conditions: Homo sapiens, PA-1, 72 h; read-out: ED50 (the source's name)
smiles,measurement,setting,value
CC(C)[C@@H]1CC[C@]2(C(=O)O)CC[C@]3(C)C(CCC4[C@@]5(C)CC[C@H](O)C(C)(C)C5CC[C@]43C)C12 (some centres undefined) [DIHYDROBETULINIC ACID],EC50,L132,2.4 µg/mL
same,EC50,BRISTOL8,4.4 µg/mL
same,EC50,A549,2.2 µg/mL
same,EC50,U-937,0.9 µg/mL
same,EC50,DU-145,0.7 µg/mL
same,EC50,Jurkat,4.9 µg/mL
same,EC50,CCRF-CEM,1.3 µg/mL
same,EC50,MOLT-4,0.6 µg/mL
same,EC50,PA-1,0.7 µg/mL
